The test system of this assay is cows. Description: Abomasal infusion of sorbitol in cows, repeat trial with different cows (Example 3). As to conditions: for Fat / Lactose / Non-Protein Nitrogen / Total Solids / True Protein: 100 g/cow/day abomasal, 3 cows. The format is in vivo, cow. As for the experimental part:
To determine the weight percent total solids, wet basis, in a sample, the actual weight of total solids is determined by analyzing the sample in accordance with Method #925.23 (33.2.09) of Official Methods of Analysis, Association of Official Analytical Chemists (AOAC) (16th Ed., 1995). The weight percent total solids, wet basis, is then calculated by dividing the actual weight of total solids by the actual weight of the sample. The weight percent of true protein, wet basis, for a particular sample is calculated after first determining the wet basis weight percent of total Kjeldahl nitrogen and the wet basis weight percent of non-protein nitrogen in the sample. The wet basis weight percent of total Kjeldahl nitrogen in the sample is determined using the method referenced above. The wet basis weight percent of non-protein nitrogen (NPN) in the sample is determined in accordance with Method #991.21 (33.2.12) of Official Methods of Analysis, Association of Official Analytical Chemists (AOAC) (16th Ed., 1995). The weight percent of true protein, wet basis, in the sample is then determined by subtracting the wet basis weight percent of non-protein nitrogen in the sample from the wet basis weight percent of total Kjeldahl nitrogen in the sample. To determine the weight percent lactose, wet basis, in a liquid sample, the weight of the liquid sample is first determined. The actual weight of lactose in the liquid sample may then be determined using analysis kit number 176-303, that is available from Boehringer-Mannheim of Indianapolis, Ind. in accordance with the procedural instructions included with analysis kit number 176-303. The weight percent lactose, wet basis, in the liquid sample is then calculated by dividing the actual weight of lactose in the liquid sample by the actual weight of the liquid sample. To determine the weight percent fat, wet basis, in a sample, the actual weight of fat in the sample is determined in accordance with Method #974.09 (33.7.18) of Official Methods of Analysis, Association of Official Analytical Chemists (AOAC) (16th Ed., 1995). The weight percent fat, wet basis, is then calculated by dividing the actual weight of fat in the sample by the actual weight of the sample. In this example, sorbitol was abomasally infused into three different cows at a rate of 100 grams of sorbitol per cow per day during a 14 day test period. The sorbitol rations were mixed with water to facilitate infusion. The rations provided to the cows during the period extending from day 0, prior to abomasal infusion of sorbitol, through day 14 of the test period were the same. The only difference in feeding of the cows between day 0 and days 1-14 of the test period were that during days 1-14 the cows were abomasally infused with the dosage of 100 grams of sorbitol per cow per day. Milk from the three cows was collected and analyzed prior to infusion (on day 0) and also was collected and analyzed on the third, seventh and fourteenth day of the test period. The results presented in Table 2 below for each milk component for each particular day are averages for the milk collected from the three different cows. The trial of Example 2 was repeated in Example 3 several months later using three different cows. All of the test conditions described above for Example 2 were repeated in Example 3, with the exception of use of different cows. The results of the second trial are listed in Table 3 below: The net change for the different milk components presented in Table 3 was calculated by averaging the results of days 3, 7 and 14 for a particular milk component and subtracting the results presented for day 0 for the particular milk component. The results of Table 3 illustrate that, on average, the abomasal infusion of sorbitol caused a net increase in the amount of fat and total solids in the milk of the test cattle. […]

Setting [1] is: milk, average of days 3, 7, 14 minus day 0.

Regarding `OC[C@@H](O)[C@@H](O)[C@H](O)[C@@H](O)CO` [sorbitol], the “amount of fat and total solids in the milk (conclusion in words)” value (abomasal infusion, 14 day test period, on average) is recorded as “net increase”. Where the note is “milk, Day 3”, the Fat is 4.22 Wt %, the Lactose is on record as 4.80 Wt. %, the “Non-Protein Nitrogen” value is 0.23 Wt. % and the “Total Solids” value is given as 12.95 Wt. %. For the same molecule, where the note is “milk, Day 3”, the “True Protein” value came out at 3.21 Wt. %. Moreover, where the note is “milk, Day 7”, the Fat came out at 3.53 Wt %, the Lactose came out at 5.12 Wt. %, the “Non-Protein Nitrogen” value is 0.27 Wt. % and the “Total Solids” value is recorded as 12.26 Wt. %. Also, the “True Protein” value (milk, Day 7) is 2.89 Wt. %. Further, under “milk, Day 14”, the Fat was 3.81 Wt %, the Lactose amounted to 5.80 Wt. %, the “Non-Protein Nitrogen” value amounted to 0.23 Wt. % and the “Total Solids” value is on record as 12.55 Wt. %. In addition, the “True Protein” value (milk, Day 14) worked out at 3.22 Wt. %. Besides, under setting [1], the “Fat, Net Change” value is given as “+0.38 Wt %”; the “Lactose, Net Change” value was “+0.39 Wt. %”; the “Non-Protein Nitrogen, Net Change” value is listed as “no net change”; the “Total Solids, Net Change” value is reported as “+0.41 Wt. %”. Also, the “True Protein, Net Change” value under setting [1] is listed as −0.03 Wt. %. For the same molecule, under “milk, days 3 and 14 versus day 0”, the “increase of true protein content if the results of day 7 were eliminated from the net change” value is reported as “about 0.08 weight percent”.

These data come from patent publication US6866861B1, “Method and composition for enhancing milk component concentrations” (Land O'Lakes, Inc., priority 1999, dated 2005).
